“Also recorded” adds a separate entry of the source.
Tests used:
[1] = system: participants with mild to moderate psoriasis; assay: 12-lead ECG (QTcF) in the clinical study; type: in vivo, human
Description: (§1) Two study interventions were used, Compound 1 and placebo. The Compound 1 intervention comprised 4× tablets of Compound 1 50 mg twice daily, i.e. 200 mg BID, for 4 weeks. The placebo intervention was 4× tablets of placebo twice daily for 4 weeks. Tablets were administered orally.
The following electrocardiogram data were recorded: • Standard 12-lead ECGs (safety ECGs) were recorded after at least 10 minutes in supine position using an electrocardiographic device. The electrodes were positioned at the same place for each ECG recording throughout the study (e.g., attachment sites of the leads were visualized on a transparent paper). • Triplicate ECGs were recorded within 5 minutes with at least 1 min between 2 replicates for all ECG. • Each ECG consisted of a 10-second recording of the 12 leads simultaneously, leading to: • A single 12-lead ECG (50 mm/s, 10 mm/mV) printout with heart rate, PR, QRS, QT, QTc automatic correction evaluation (by the ECG device), including date, time, and number of the participant, signature of the research physician, and at least 3 complexes for each lead. The Investigator's medical opinion and automatic values were recorded in the eCRF. This printout was retained at the site. A second printout was performed also, if needed. • A digital storage that enables eventual further reading by an ECG central laboratory: each digital file will be identified by theoretical time (day and time Dxx Txx Hxx), real date and real time (recorder time), Sponsor study code, participant number (i.e., 3 digits), and site and country numbers, if relevant. The digital recording, data storage, and transmission (whenever requested) need to comply with all applicable regulatory requirements (i.e., FDA 21 code of federal regulations [CFR], Part 11).
(§2) For AESI in this study, the Sponsor was to be informed immediately (i.e., within 24 hours), as per SAE notification guidelines, even if a seriousness criterion was not met, using the corresponding screens in the eCRF. • ALT increased >3×ULN. • QT prolongation (QTcF≥500 milli seconds [ms]) and/or a delta QTc change from baseline>60 ms (12-lead ECG). In the event of prolongation of QTc interval (automatic measurement)≥500 ms, confirmed by a manual reading by the Investigator or a physician delegated by the Investigator using the Fridericia formula for correcting QT, the participant was placed under supervision in a specialized setting. Investigational medicinal product administration was stopped, and appropriate blood samples collected. Subsequent ECG monitoring of the participant was then performed on a regular and clinically responsible basis until the QTc interval returned to a safe value as determined by the Investigator in agreement with the Sponsor. • Photosensitivity (Grade 2 and above AE due to sun exposure). • Pregnancy. • Symptomatic overdose. • An overdose (accidental or intentional) with the IMP is an event suspected by the Investigator or spontaneously notified by the participant (not based on systematic pills count) and defined as at least twice the intended dose within the intended therapeutic interval, adjusted according to the tested drug.

[2] = system: participants with mild to moderate psoriasis; assay: Liver function laboratory tests in the clinical study; type: in vivo, human
Description: as §1
Laboratory tests (from at least 10 hours under fasting conditions for blood samples) included: • Hematology: red blood cell count, hematocrit, hemoglobin, white blood cell count with differential count (neutrophils, eosinophils, basophils, monocytes, and lymphocytes), platelets. • Biochemistry: • Plasma/serum electrolytes: sodium, potassium, chloride, calcium, • Liver function: AST, ALT, alkaline phosphatase, GGT, total and conjugated bilirubin, • Renal function: urea, creatinine, • Metabolism: glucose, albumin, total proteins, total cholesterol, triglycerides, • Potential muscle toxicity: CK, • International normalized ratio (INR), and activated partial thromboplastin time (aPTT), • C-reactive protein; the CRP levels were evaluated by an independent investigator who is not involved in the study to protect the blinding of the study. CRP values were provided by the independent investigator to the investigator in case of medical need. • Procalcitonin at screening, week 2 and EOS. • QuantiFERON-TB Gold (QFT) test.
as §2
Once the participant was included in the clinical trial, the following laboratory abnormalities were monitored, documented, and managed: • Neutropenia, characterized as neutrophils <1500/mm^3 or according to ethnic group (recorded as an AE only if at least 1 of the criteria listed above was met) • Thrombocytopenia, characterized as platelets <100,000/mm^3 confirmed with or without bleeding (recorded as an AE only if at least 1 of the criteria listed above was met) • Increase of ALT. Patients were monitored where 3 ULN<ALT≤5 ULN and total bilirubin was ≤2 ULN. […]

CN1C(=O)c2cccc(OC(F)F)c2[C@H]2C[C@@H]1c1nc3ccc(-c4cnc(C5(N)CCC5)nc4)cc3n12 [Compound 1, (7R,14R)-11-[2-(1-aminocyclobutyl)pyrimidin-5-yl]-1-(difluoromethoxy)-6-methyl-6,7-dihydro-7,14-methanobenzimidazo[1,2-b][2,5]benzodiazocin-5(14H)-one]
QTcF change from baseline >60 msec and/or QTcF>480 msec ([1]; 200 mg BID): no QTcF change from baseline >60 msec and/or QTcF>480 msec
QTcF change from baseline, one participant ([1]; 200 mg BID, Day 8, baseline 426 msec): 33 ms
Number of participants with QTcF>450 msec ([1]; 200 mg BID, one single occasion on Day 8): One
QTcF, one participant ([1]; 200 mg BID, one single occasion on Day 8, baseline 426 msec): 459 ms
risk of QTc prolongation / impact on cardiac parameters (in words) ([1]; 4-week clinical trial): No indication for risks on QTc prolongation was observed; also recorded: neither was any significant impact on cardiac parameters (e.g., QTcF interval)
potentially clinically significant abnormality (PCSA) for ALT increase ([2]; 200 mg BID): no PCSA for ALT increase
total bilirubin, first participant ([2]; 200 mg BID, Day 8, baseline 1.5 ULN): 1.67 ULN
total bilirubin, second participant ([2]; 200 mg BID, day not given, baseline 1.3 ULN): 1.56 ULN
Number of participants with total bilirubin increased >1.5 ULN ([2]; 200 mg BID, one single occasion): two
liver function tests / impact on liver parameters (in words) ([2]; 4-week clinical trial): no signal for risks on liver function tests; also recorded: neither was any significant impact on cardiac parameters (e.g., QTcF interval) or liver parameters (e.g., AST, ALT, or bilirubin levels) observed
